Four compounds from paper PMC9927457 (Microbiology Spectrum, 2023) can be followed below.

A short description of data set [1]: Plasma protein binding (Rapid Equilibrium Dialysis). The format is in vitro ADME, human. As to conditions: human; for fraction unbound at 4 h, 5 µM: plasma. Here is the method: Molecule fraction fraction Post-Assay
Table S5. Plasma protein binding
Protein binding was measured in human plasma using Rapid Equilibrium Dialysis (RED) devices (Pierce) according to the manufacturers’ instructions; 5 µM compounds in plasma were dialysed against PBS for 4 h at 37C. Compounds were detected by LC-MS/MS in plasma and PBS

Data set [2] relates to M. tuberculosis strain under expressing LepB (LepB-UE). Put plainly: microbe, parasite or virus in culture. As to conditions: for MIC: Mycobacterium tuberculosis, 120 h. The format is cell-based, Mycobacterium tuberculosis.
Data set [3] can be described thus: Microsomal metabolic stability. As to conditions: human, pH 7.4; for half-life at 1 µM: liver microsomes; for microsomal CLint at 1 µM: microsomes. Here is the method:
(§1) Permeability was measured across Caco-2 cells cultured in a Millipore 96-well Caco-2 plate. For apical to basolateral (A→B) permeability, 10 μM compound was added to the apical (A) side and amount of permeation was determined on the basolateral (B) side; for basolateral to apical (B→A) permeability, the compound was added to the B side and the amount of permeation was determine on the A side. Time points were taken at 2 h.
Table S3. Metabolic stability. Metabolic stability was measured using human liver microsomes. […]

Data set [4] has as its target CYP3A4 (Homo sapiens, UniProt P08684). Put plainly: Cytochrome P450 inhibition. The following applies: liver microsomes. The format is in vitro ADME. Here is the method:
(§2) Table S4. Inhibition of cytochrome P450s.
(§3) Compounds were tested for inhibition of P450s using the enzyme substrate pairs and conditions noted. IC50s (µM) were calculated. Control P450 inhibitors were included for each isoform.
(§4) For each compound, the analytical method was developed as follows. Analyte signal was optimized for each compound by ESI positive or negative ionization mode. An MS2 scan or an SIM scan was used to optimize fragmenter voltage and a product ion analysis was used to identify the best fragment for analysis. The collision energy was optimized using a product ion or MRM scan. An ionization ranking was assigned indicating the compound’s ease of ionization. Samples […]
(§5) 1200 HPLC and a CTC PAL chilled autosampler, all controlled by MassHunter software (Agilent).
(§6) After separation on a C18 reverse phase HPLC column (Agilent Zorbax StableBond 3.5µm, 2.1 x 30 mm) using an acetonitrile -water gradient system, peaks were analyzed by mass spectrometry (MS) using ESI ionization in MRM mode.
(§7) (1 picture or pasted object on this page, not shown here)
(§8) Serial dilutions of a 10 mM stock solution were prepared in acetonitrile:DMSO (9:1). The final DMSO concentration was < 0.2%. Compounds were incubated with human liver microsomes in the presence of 2 mM NADPH in 100 mM potassium phosphate (pH 7.4) containing 5 mM magnesium chloride and a probe substrate, in a 200 µl assay final volume in duplicate. The probe substrate concentrations including bupropion (CYP2B6), amodiaquine (CYP2C8), tolbutamide (CYP2C9), mephenytoin (CYP2C19), dextromethorphan (CYP2D6) and midazolam/testosterone […]
(§9) After incubation at 37 °C, reactions were terminated by addition of methanol containing internal standard (propranolol) for analytical quantification. The quenched samples were kept on ice for 10 min and centrifuged at 4 °C for 10 min. The supernatant was removed and the probe substrate metabolite was analyzed by LC-MS/MS (Agilent Technologies Triple Quad LC/MS). A decrease in the formation of the metabolite compared to vehicle control

Data set [5] deals with T1, CYP2C8 (Homo sapiens, UniProt P10632).
T1 sequence (P10632 1-490): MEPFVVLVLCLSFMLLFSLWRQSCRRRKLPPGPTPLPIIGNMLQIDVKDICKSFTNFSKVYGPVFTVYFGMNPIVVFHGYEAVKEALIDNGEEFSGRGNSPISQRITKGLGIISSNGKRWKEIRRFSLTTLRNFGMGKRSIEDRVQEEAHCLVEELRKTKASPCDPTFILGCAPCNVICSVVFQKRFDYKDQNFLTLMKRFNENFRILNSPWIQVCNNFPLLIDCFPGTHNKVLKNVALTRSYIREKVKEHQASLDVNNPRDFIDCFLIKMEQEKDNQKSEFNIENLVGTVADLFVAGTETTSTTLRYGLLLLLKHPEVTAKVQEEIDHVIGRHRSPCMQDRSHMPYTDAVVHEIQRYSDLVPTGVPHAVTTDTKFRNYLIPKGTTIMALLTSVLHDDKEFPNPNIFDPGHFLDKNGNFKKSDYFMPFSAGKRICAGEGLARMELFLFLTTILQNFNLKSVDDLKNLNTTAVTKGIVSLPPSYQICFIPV
The data set is described as follows: biochemical. How it is done: as §2, §3, §4, §5, §6, §7, §8, §9

The target of data set [6] is CYP2C19 (Homo sapiens, UniProt P33261). Put plainly: biochemical. How it is done:
as §2, §3, §4, §5, §6, §7, §8, §9

The target in data set [7] is CYP2D6 (Homo sapiens, UniProt P10635). Put plainly: biochemical. Here is the method: as §2
(§10) Compounds were tested for inhibition of P450s using the enzyme substrate pairs and conditions noted. IC50s (µM) were calculated. Control P450 inhibitors were included for each isoform. […]
as §5, §6, §8, §9

Data set [8] addresses T2, CYP2B6 (Homo sapiens, UniProt P20813).
T2 sequence (P20813 1-491): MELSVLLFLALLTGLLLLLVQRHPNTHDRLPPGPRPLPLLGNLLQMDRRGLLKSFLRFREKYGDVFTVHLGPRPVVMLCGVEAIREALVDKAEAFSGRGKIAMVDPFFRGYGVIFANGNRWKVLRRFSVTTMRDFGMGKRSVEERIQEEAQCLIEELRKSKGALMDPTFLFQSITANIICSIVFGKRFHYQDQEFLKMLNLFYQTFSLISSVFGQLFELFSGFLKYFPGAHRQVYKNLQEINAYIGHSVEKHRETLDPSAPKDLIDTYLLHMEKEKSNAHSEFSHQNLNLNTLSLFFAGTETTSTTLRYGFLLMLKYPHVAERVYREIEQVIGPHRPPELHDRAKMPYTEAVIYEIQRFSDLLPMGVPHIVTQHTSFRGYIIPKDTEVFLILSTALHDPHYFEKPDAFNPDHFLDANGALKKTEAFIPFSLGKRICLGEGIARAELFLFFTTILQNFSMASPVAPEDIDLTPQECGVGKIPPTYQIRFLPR
The data set is described as follows: Cytochrome P450 inhibition. How it is done: as §2, §3, §4, §5, §6, §7, §8, §9

The target of data set [9] is CYP2C9 (Homo sapiens, UniProt P11712). Put plainly: biochemical. How it is done:
as §2, §10, §8, §9

The subject of data set [10] is M. tuberculosis wild-type strain. The data set is described as follows: MIC against wild-type M. tuberculosis. The format is cell-based, Mycobacterium tuberculosis. As to conditions: concentration required to inhibit growth by 90%, 5 days culture; for MIC: Mycobacterium tuberculosis, 120 h, read-out: MIC Wild type.
For data set [11], the system named is HepG2 cells. Put plainly: HepG2 cytotoxicity. The format is cell-based, human. As to conditions: Homo sapiens, HepG2, 72 h, 3 days exposure, CellTiter-Glo. Here is the method: HepG2 cells were used to measure eukaryotic cytotoxicity. Viability of HepG2 was measured using CellTiter-Glo reagent (Promega) after 3 days of exposure to compounds. […] Staurosporine controls (maximum inhibition) and a staurosporine dose response were included on every plate.

Data set [12] in a line: in vitro. The following applies: human; for Papp A→B at 2 h, 10 µM / Papp B→A at 2 h, 10 µM / efflux ratio at 2 h, 10 µM: Caco-2. How it is done:
as §1
(§11) Table S2. Permeability. Permeability was measured using Caco-2 cells after 1 and 2 hours incubation with compound. (A→B) is Apical to Basolateral; (B→A) is Basolateral to Apical. Data is expressed as permeability (10-6 cm s-1). dQ/dt is rate of permeation, C0 is initial concentration […]
(§12) Article Duration direction value replicate replicate mean recovery

In data set [13] the test system is Caco-2 cells. Put plainly: Caco-2 permeability. Here is the method: as §1, §11, §12
In data set [14] the target is SPase activity in M. tuberculosis H37Rv cell membrane fractions (Mycobacterium tuberculosis, UniProt P9WKA1). The data set is described as follows: Inhibition of secretion (SPase activity) in membrane fractions. The format is biochemical. The following applies: fluorogenic peptide substrate 2 μM; 4 h, 37 °C.
In data set [15] the test system is RAW 264.7 macrophages. Put plainly: Cytotoxicity against infected macrophages. As to conditions: Mus musculus; infected RAW264:7 cells, 72 h; read-out: IC50 Macrophage. The format is cell-based, murine. How it is done: Murine RAW 264.7 macrophages (ATCC TIB-71) were infected with M. tuberculosis DsRed (DREAM8) ([29]) as described at a multiplicity of infection of 1 for 24 h, washed, harvested, and dispensed into 384-well plates ([30]). Infected macrophages were exposed to compounds for 72 h; cell nuclei were stained with SYBR green I. Plates were imaged with an ImageXpress Micro High Content Screening System (Molecular Devices) using a ×4 objective and FITC and Texas Red channels. MetaXpress was used to determine the integrated intensity of bacteria or macrophages. […] Isoniazid and staurosporine controls (maximum inhibition) and dose responses were included on every plate.

Where [16] appears, read: Mean plasma fraction Unbound Fuplasma.

≈ marks a conversion by molar mass, not a printed value.

Sequence of CYP3A4 (P08684 2-503): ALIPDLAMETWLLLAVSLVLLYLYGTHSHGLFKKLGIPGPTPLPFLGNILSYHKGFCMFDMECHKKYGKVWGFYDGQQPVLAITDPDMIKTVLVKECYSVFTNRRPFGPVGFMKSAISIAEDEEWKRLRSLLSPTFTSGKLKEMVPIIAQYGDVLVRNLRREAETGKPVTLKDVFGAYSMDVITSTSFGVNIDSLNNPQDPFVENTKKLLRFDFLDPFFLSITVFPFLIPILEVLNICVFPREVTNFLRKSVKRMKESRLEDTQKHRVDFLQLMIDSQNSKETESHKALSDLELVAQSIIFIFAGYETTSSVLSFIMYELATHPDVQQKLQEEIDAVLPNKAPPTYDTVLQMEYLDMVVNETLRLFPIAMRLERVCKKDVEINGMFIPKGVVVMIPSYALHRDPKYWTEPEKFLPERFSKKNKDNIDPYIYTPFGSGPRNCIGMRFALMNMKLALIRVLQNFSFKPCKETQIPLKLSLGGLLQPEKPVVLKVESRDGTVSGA
Sequence of SPase activity in M. tuberculosis H37Rv cell membrane fractions (P9WKA1 whole entry): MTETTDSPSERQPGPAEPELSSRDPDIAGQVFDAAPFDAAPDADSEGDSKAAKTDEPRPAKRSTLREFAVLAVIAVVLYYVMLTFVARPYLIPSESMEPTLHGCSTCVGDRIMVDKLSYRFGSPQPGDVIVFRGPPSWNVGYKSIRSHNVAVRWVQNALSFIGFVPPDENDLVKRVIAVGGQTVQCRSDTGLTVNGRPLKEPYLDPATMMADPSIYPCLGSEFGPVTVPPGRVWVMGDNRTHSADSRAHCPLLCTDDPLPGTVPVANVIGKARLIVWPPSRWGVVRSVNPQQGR
Sequence of CYP2C9 (P11712 whole entry): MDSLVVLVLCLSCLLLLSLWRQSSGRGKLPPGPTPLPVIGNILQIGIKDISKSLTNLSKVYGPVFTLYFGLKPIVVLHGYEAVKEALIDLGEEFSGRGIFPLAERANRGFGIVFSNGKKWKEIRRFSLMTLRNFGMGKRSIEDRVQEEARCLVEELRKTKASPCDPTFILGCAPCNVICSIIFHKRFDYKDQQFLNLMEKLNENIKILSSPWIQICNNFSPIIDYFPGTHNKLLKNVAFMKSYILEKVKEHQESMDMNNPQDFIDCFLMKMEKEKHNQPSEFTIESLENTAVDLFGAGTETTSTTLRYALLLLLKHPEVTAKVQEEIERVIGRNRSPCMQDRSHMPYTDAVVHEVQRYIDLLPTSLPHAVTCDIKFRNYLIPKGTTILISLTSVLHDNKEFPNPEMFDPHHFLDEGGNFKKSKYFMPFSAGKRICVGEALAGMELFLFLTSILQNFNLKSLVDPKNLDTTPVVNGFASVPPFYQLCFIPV
Sequence of CYP2D6 (P10635 whole entry, canonical isoform): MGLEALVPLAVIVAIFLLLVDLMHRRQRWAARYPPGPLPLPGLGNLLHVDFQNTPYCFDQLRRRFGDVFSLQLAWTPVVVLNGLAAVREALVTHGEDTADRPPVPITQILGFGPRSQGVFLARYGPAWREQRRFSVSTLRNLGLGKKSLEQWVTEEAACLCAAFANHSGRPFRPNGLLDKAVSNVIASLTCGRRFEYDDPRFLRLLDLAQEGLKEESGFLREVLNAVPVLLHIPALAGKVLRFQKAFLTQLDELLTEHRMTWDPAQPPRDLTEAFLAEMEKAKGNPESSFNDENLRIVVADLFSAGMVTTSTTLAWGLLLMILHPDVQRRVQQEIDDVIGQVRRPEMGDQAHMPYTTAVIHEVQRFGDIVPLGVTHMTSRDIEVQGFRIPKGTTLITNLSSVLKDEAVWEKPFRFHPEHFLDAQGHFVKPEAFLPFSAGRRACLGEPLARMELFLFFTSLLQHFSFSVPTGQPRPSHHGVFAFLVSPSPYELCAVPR
Sequence of CYP2C19 (P33261 whole entry): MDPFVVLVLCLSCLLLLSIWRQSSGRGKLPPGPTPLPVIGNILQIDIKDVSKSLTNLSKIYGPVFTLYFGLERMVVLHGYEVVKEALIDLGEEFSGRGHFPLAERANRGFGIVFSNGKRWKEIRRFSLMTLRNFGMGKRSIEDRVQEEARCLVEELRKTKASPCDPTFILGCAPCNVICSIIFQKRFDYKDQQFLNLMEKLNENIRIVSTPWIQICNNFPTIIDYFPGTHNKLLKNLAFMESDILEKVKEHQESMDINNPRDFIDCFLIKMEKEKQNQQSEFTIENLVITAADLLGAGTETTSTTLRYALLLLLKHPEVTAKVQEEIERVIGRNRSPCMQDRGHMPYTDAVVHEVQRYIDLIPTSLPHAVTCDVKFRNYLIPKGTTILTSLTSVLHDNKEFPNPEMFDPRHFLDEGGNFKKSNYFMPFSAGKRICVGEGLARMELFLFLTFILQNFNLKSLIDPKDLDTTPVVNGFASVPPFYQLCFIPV

`COCCCNC(=S)Nc1nc2ccccc2s1` [Molecule 24, 1-(benzo[d]thiazol-2-yl)-3-(3-methoxypropyl)thiourea] registered a recovery at 4 h, 5 µM in [1] of 76.5%. Moreover, the fraction unbound at 4 h, 5 µM in data set [1] (Mean plasma fraction Bound) and in [1] (setting [16]) was 0.055 each time. Further, the MIC in data set [2] stood at 58 ± 1 µM (≈ 16.3 µg/mL); in data set [10], 65 ± 21 µM (≈ 18.3 µg/mL). The half-life at 1 µM in data set [3] was found to be 8.2 min. The compound also came in with a microsomal CLint at 1 µM in data set [3] of 282 µL/min/mg. The IC50 at 10 min was more than 20 µM in data set [4] (pH 7.4, probe midazolam) and more than 20 µM in [4] (pH 7.4, probe testosterone). For the same compound, the IC50 in data set [5] is more than 20 µM; in [6] it was more than 20 µM; in [7], more than 20 µM; in data set [8], more than 20 µM; in [9], more than 20 µM; in data set [11], 65 ± 60 µM. The Papp A→B at 2 h, 10 µM in data set [12] was determined as 17 ×10⁻⁶ cm/s. The compound further yielded a Papp B→A at 2 h, 10 µM in [12] of 15 ×10⁻⁶ cm/s. Also, the efflux ratio at 2 h, 10 µM in data set [12] turned out to be 0.87. In data set [12] (Caco-2, recovery), this compound returned a recovery at 2 h, 10 μM of 54%. Besides, the “dQ/dt (rate of permeation), mean” value in data set [13] (A→B, assay duration 1 hr) was 1.1E-04; in data set [13] (A→B, assay duration 2 hr) it was 8.8E-05; in data set [13] (B→A, assay duration 1 hr), 8.0E-05; in data set [13] (B→A, assay duration 2 hr) it was 1.1E-04.
With `CCCCNC(=S)Nc1nc2ccccc2o1` [Molecule 12, 1-(benzo[d]oxazol-2-yl)-3-butylthiourea], the recovery at 4 h, 5 µM in [1] amounted to 80.1%. Further, the fraction unbound at 4 h, 5 µM in data set [1] (Mean plasma fraction Bound) and in data set [1] (setting [16]) was 0.002 in each case. Besides, the “MIC LepB-UE” value in [2] came out at 32 ± 11 µM (≈ 7.98 µg/mL). For the same compound, the MIC in data set [2] and in data set [10] was 23 to 32 µM (≈ 5.73 to 7.98 µg/mL) in each case. Besides, in data set [3], the half-life at 1 µM amounted to 11 min. The microsomal CLint at 1 µM in [3] amounted to 218 µL/min/mg. For the same compound, the IC50 at 10 min in data set [4] (pH 7.4, probe midazolam) was more than 20 µM; in [4] (pH 7.4, probe testosterone), more than 20 µM. Moreover, the IC50 was more than 20 µM in data set [5]; 12.7 µM in data set [6]; more than 20 µM in data set [7]; more than 20 µM in [8]; more than 20 µM in [9]; more than 200 µM in data set [14]. Moreover, in data set [11], the midpoint of inhibition, the IC50, lay at 21 ± 19 µM. The “MIC Wild type” value in data set [10] was 23 ± 9.0 µM (≈ 5.73 µg/mL). The Papp A→B at 2 h, 10 µM in data set [12] amounted to 4.9 ×10⁻⁶ cm/s. This compound displayed a Papp B→A at 2 h, 10 µM in [12] of 5.8 ×10⁻⁶ cm/s. Also, the efflux ratio at 2 h, 10 µM in [12] amounted to 1.2. Further, the “dQ/dt (rate of permeation), mean” value in data set [13] (A→B, assay duration 1 hr) was 3.4E-05; in data set [13] (A→B, assay duration 2 hr), 3.2E-05; in data set [13] (B→A, assay duration 1 hr) it was 2.7E-05; in [13] (B→A, assay duration 2 hr) it was 3.0E-05.
In the case of `S=C(NCCc1ccccc1)Nc1nc2ccccc2s1` [Molecule 26, 1-(benzo[d]thiazol-2-yl)-3-phenethylthiourea], the fraction unbound at 4 h, 5 µM in data set [1] (Mean plasma fraction Bound) was 0.055. In addition, the figures for the MIC in data set [2] and in [10] were 8 ± 3 µM (≈ 2.51 µg/mL) and more than 200 µM, respectively. Also, the IC50 is 1.4 ± 0.2 µM in data set [15], more than 200 µM in data set [14] and 8 ± 6 µM in [11].
`CCCCNC(=S)Nc1nc(-c2ccccc2)co1` [Molecule 23, 1-butyl-3-(4-phenyloxazol-2-yl)thiourea]: the “MIC LepB-UE” value in data set [2] was found to be 10 ± 2.0 µM (≈ 2.75 µg/mL). Besides, the MIC in data set [2] and in [10] was 10 to 11 µM (≈ 2.75 to 3.03 µg/mL) throughout. Moreover, the IC50 in data set [15] was 30 ± 6.4 µM; in data set [14] it was more than 200 µM; in [11], 32 ± 4 µM. For the same compound, the “MIC Wild type” value in [10] came out at 11 ± 4.0 µM (≈ 3.03 µg/mL).
